Laboratory results from patent US7906488B2, “Sphingolipids in treatment and prevention of steatosis and of steatosis or of hepatotoxicity and its sequelae” (Nederlandse Organisatie Voor …, priority 2004, dated 2011).

Test system: APOE*3Leiden mice
Assay: Hepatic mRNA expression levels by RT-PCR (normalized to HPRT)
Format: in vivo
Design: key to acc1 mRNA, Change / mttp mRNA, Change / dgat1 mRNA, Change / dgat2 mRNA, Change / aco mRNA, Change / ldlr mRNA, Change / apob mRNA, Change / srebp2 mRNA, Change / pparα mRNA, Change / pparγ mRNA, Change / lxrα mRNA, Change / lxrβ mRNA, Change / fxr mRNA, Change / hmgcoAred mRNA, Change / cyp7α mRNA, Change / abca1 mRNA, Change / srebp1c mRNA, Change / fas mRNA, Change: ↑, (upregulated); ↓, (downregulated); n.s., not significant
Method: Plasma parameters: Tail blood samples were collected in EDTA-coated cups, or in paraoxon-coated capillaries to prevent lipolysis as described in Zambon et al. 1993 (Zambon et al. 1993. J. Lipid Res. 34:1021-1028). Plasma lipid parameters were determined using commercial kits for total cholesterol (C) Chol R1 from Roche Diagnostics, Mannheim, Germany), non-esterified free fatty acids (FFA) (NEFA-C; Wako chemicals, Neuss, Germany), Total triglycerides (TG) (Triglyceride GPO-Trinder; Sigma, St. Louis, Mo.), β-hydroxybutyrate (β-HB; Sigma) and ALAT (Reflotron GPT; Roche). Serum amyloid A (SAA) was measured by ELISA (Biosource, Nivelles, Belgium) and fibrinogen by sandwich ELISA, as described in Koopman et al., 2005 (Koopman et al. 2005. Fibrinol Proteol 11:19). For lipoproteins fractionation, groupwise-pooled plasma was size-fractionated by fast protein liquid chromatography (FPLC) on a Superose 6 column (Äkta; Amersham Pharmacia Biotech, Uppsala, Sweden). Fractions were assayed for total C and TG as described. Hepatic VLDL-TG production: The rate of hepatic VLDL-TG production, de novo apoB secretion, and VLDL composition were determined in overnight-fasted mice. Mice were anaesthetized with vetranquil/fentanyl/midazolam i.p., and injected i.v. with 0.1 ml PBS containing 100 μCi Tran^35S-label™ (ICN Biomedicals, Irvine, Calif.) to measure the de novo apoB synthesis. After 30 min, the animals received a Triton WR1339 injection (Tyloxapol, Sigma; 500 mg/kg body weight in 100 μl saline) to prevent systemic lipolysis of newly-secreted hepatic VLDL-TG (Aalto-Setala et al. 1992. J. Clin. Invest 90:1889-1900.27) Blood samples were drawn at 0, 15, 30, 60, and 90 min after Triton WR1339 injection and plasma TG concentrations were determined. After 90 min, the animals were sacrificed and blood was collected by retro-orbital bleeding for isolation of VLDL. VLDL composition: VLDL particles (d<1.019) were separated from other lipoproteins in plasma by density gradient ultra-centrifugation, as described in Jong et al., 1996 (Jong et al. 1996. Arterioscler. Thromb. Vasc. Biol. 16:934-940). Protein content of the VLDL fraction was determined by Lowry's assay (Lowry et al., 1951. J. Biol. Chem. 193:265-275), and TG and total C were determined as described above. Phospholipids and free cholesterol were determined using standard commercial kits (Wako Chemicals, Neuss, Germany). The ^35S-apoB content of VLDL was measured after selective precipitation of apoB with isopropanol as described elsewhere (Li et al. 1996 J. Lipid Res. 37:210-220; Pietzsch et al. 1995. Biochim. Biophys. Acta 1254:77-88). In vivo clearance of VLDL-like TG-rich particles: To determine whether 1% PS accelerates the clearance of TG-rich lipoproteins from plasma, we used radiolabeled emulsion particles as a tool. VLDL-like emulsion particles containing 200 μCi of [^3H]triolein and 20 μCi of [^14C]cholesteryl oleate were prepared and characterized as described in Rensen et al. 1997 (Rensen et al., 1997. J. Lipid Res. 38:1070-1084). Fed mice were anaesthetized as described above and laparotomy was performed. […] After taking the last liver and blood sample, the remainder of the liver, heart, spleen, hind limb muscle, and gonadal, perirenal and intestinal white adipose tissues were harvested. Lipids were extracted overnight at 60° C. in 500 μL of Solvable™, and radioactivity was counted as described in Rensen et al., 1997 (supra). RNA isolation and RT-PCR: Livers from 4 h-fasted mice fed 1% PS-containing diet or control Western-type diet for 5 weeks were removed immediately after sacrifice, flushed with cold 0.9% NaCl and snap frozen in liquid nitrogen. Total RNA was isolated as described by Chomczynski and Sacchi (Chomczynski, P. and Sacchi, N. 1987. Anal. Biochem. 162:156-159) by use of RNA-Bee™ (Campro Scientific, Berlin, Germany). cDNA synthesis was performed according to Bloks et al (Bloks et al., 2001. J. Lipid Res. 42:41-50). […]

[1] = 1% PS diet, 5 weeks, control = 100%

Structure (SMILES): CCCCCCCCCCCCCC[C@@H](O)[C@@H](O)[C@@H](N)CO [PS, phytosphingosine]
- abca1 mRNA, Change (1% PS diet vs control): n.s.
- acc1 mRNA, Change (1% PS diet vs control): n.s.
- aco mRNA, Change (1% PS diet vs control): n.s.
- apob mRNA, Change (1% PS diet vs control): n.s.
- cyp7α mRNA, Change (1% PS diet vs control): ↓
- dgat1 mRNA, Change (1% PS diet vs control): n.s.
- dgat2 mRNA, Change (1% PS diet vs control): ↑
- fas mRNA, Change (1% PS diet vs control): ↑
- fxr mRNA, Change (1% PS diet vs control): ↑
- hmgcoAred mRNA, Change (1% PS diet vs control): ↑
- ldlr mRNA, Change (1% PS diet vs control): ↑
- lxrα mRNA, Change (1% PS diet vs control): ↑
- lxrβ mRNA, Change (1% PS diet vs control): ↓
- mttp mRNA, Change (1% PS diet vs control): ↑
- pparα mRNA, Change (1% PS diet vs control): n.s.
- pparγ mRNA, Change (1% PS diet vs control): n.s.
- srebp1c mRNA, Change (1% PS diet vs control): ↑
- srebp2 mRNA, Change (1% PS diet vs control): ↑
- abca1 hepatic mRNA level [1]: 79 ± 6%
- acc1 hepatic mRNA level [1]: 138 ± 29%
- aco hepatic mRNA level [1]: 56 ± 9%
- apob hepatic mRNA level [1]: 105 ± 25%
- cyp7α hepatic mRNA level [1]: 7 ± 2%
- dgat1 hepatic mRNA level [1]: 112 ± 27%
- dgat2 hepatic mRNA level [1]: 185 ± 23%
- fas hepatic mRNA level [1]: 237 ± 33%
- fxr hepatic mRNA level [1]: 164 ± 58%
- hmgcoAred hepatic mRNA level [1]: 444 ± 71%
- ldlr hepatic mRNA level [1]: 209 ± 14%
- lxrα hepatic mRNA level [1]: 162 ± 13%
- lxrβ hepatic mRNA level [1]: 16 ± 8%
- mttp hepatic mRNA level [1]: 167 ± 5%
- pparα hepatic mRNA level [1]: 125 ± 10%
- pparγ hepatic mRNA level [1]: 119 ± 10%
- srebp1c hepatic mRNA level [1]: 194 ± 3%
- srebp2 hepatic mRNA level [1]: 317 ± 33%
